Measured values taken from ChEMBL document CHEMBL4483862, “Open-source discovery of chemical leads for next-generation chemoprotective antimalarials” (2018).

Tested on: Plasmodium berghei
Experiment: Luciferase/luciferin-expressing antifolate-resistant parasites were used to infect a culture of HepG2 cells that were pre-incubated with compounds. Infected hepatocytes emit light due to the luciferase reaction. Assay results are presented as the percent inhibition of light emission compared to control. […]
Type: functional
Conditions: sporozoite; for IC90: read-out: LUCIFERASE INFECTION ASSAY - IC90
[1] = read-out: LUCIFERASE INFECTION ASSAY - IC50

Row | Compound | IC90 [µM] | other results
1 | CC(C)CN1C(=O)N(C)C(=O)C12CCN(Cc1cc3ccccc3s1)CC2 | > 8.56 | IC50 (PBLUC_HILL_SLOPE 3.77, PBLUC_R_SQUARED 0.71, read-out: LUCIFERASE INFECTION ASSAY - IC50): 6.78 µM
2 | O=C(/C=C/c1ccncc1)Nc1ccc(Oc2ccccc2)cc1 | 6.66 | IC50 (HEPG2TOX_HILL_SLOPE 9.03, HEPG2TOX_R_SQUARED 0.239, PBLUC_HILL_SLOPE 3.67, PBLUC_R_SQUARED 0.501, read-out: LUCIFERASE INFECTION ASSAY - IC50): 3.66 µM
3 | Clc1ccc(-c2cnc3cnc(-c4ccco4)cn23)cc1 | > 11.2 | IC50 (FFLUC_HILL_SLOPE 15, FFLUC_R_SQUARED 0.745, PBLUC_HILL_SLOPE 1.06, PBLUC_R_SQUARED 0.544, read-out: LUCIFERASE INFECTION ASSAY - IC50): 7.89 µM
4 | CN1CCc2nc3sc(C(=O)Nc4ccc(Cl)cc4F)c(N)c3cc2C1 | > 8.44 | IC50 [1]: > 8.44 µM
5 | CC(C)Nc1nc(-c2ccccc2CO)c2sc(-c3ccccc3)cc2n1 | 0.949 | IC50 (HEPG2TOX_HILL_SLOPE 1.93, HEPG2TOX_R_SQUARED 0.921, PBLUC_HILL_SLOPE 16.9, PBLUC_R_SQUARED 0.634, read-out: LUCIFERASE INFECTION ASSAY - IC50): 0.833 µM
6 | Cc1c(-c2ccc(Cl)c(S(=O)(=O)N(C)c3ccccc3)c2)oc2ccc(F)cc2c1=O | 4.45 | IC50 (PBLUC_HILL_SLOPE 9.42, PBLUC_R_SQUARED 0.55, read-out: LUCIFERASE INFECTION ASSAY - IC50): 3.52 µM
7 | Cc1ccc(-c2noc(-c3csc([C@@H]4C[C@H](O)[C@@H](CO)O4)n3)n2)cc1 | > 9.18 | IC50 (PBLUC_HILL_SLOPE 1.21, PBLUC_R_SQUARED 0.165, read-out: LUCIFERASE INFECTION ASSAY - IC50): 3.59 µM
8 | O=C1COc2ccc(-c3cs/c(=N\c4ccc(OC(F)F)cc4)n3Cc3ccco3)cc2N1 | > 10 | IC50 [1]: > 10 µM
9 | c1ccc(NCc2ccc(-c3cn4c(-c5ccncc5)cnc4cn3)cc2)cc1 | > 8.74 | IC50 [1]: > 8.74 µM
10 | O=C(NN=CC1C(=O)N(c2ccccc2C(F)(F)F)C(=O)c2ccccc21)c1ccc(F)cc1 (stereo not drawn) | > 10 | IC50 (HEPG2TOX_HILL_SLOPE 4.25, HEPG2TOX_R_SQUARED 0.761, PBLUC_HILL_SLOPE 4.13, PBLUC_R_SQUARED 0.557, read-out: LUCIFERASE INFECTION ASSAY - IC50): 5.89 µM
11 | CC1(C(=O)NC(=S)NNc2nc3ccccc3[nH]2)CC1(Cl)Cl (stereo not drawn) | > 10 | IC50 (HEPG2TOX_HILL_SLOPE 1.8, HEPG2TOX_R_SQUARED 0.951, read-out: LUCIFERASE INFECTION ASSAY - IC50): > 10 µM
12 | COc1ccc(-n2nnnc2SCC(=O)Nc2cc(-c3ccc(C)cc3)nn2-c2ccccc2)cc1 | > 10 | IC50 [1]: > 10 µM
13 | CCOC(=O)c1sc([S+](C)[O-])c2c1CCc1conc1-2 (stereo not drawn) | > 10.6 | IC50 [1]: > 10.6 µM
14 | O=[N+]([O-])c1cnc(Sc2nc3cc(Cl)ccc3s2)s1 | > 10 | IC50 (FFLUC_HILL_SLOPE 97.7, FFLUC_R_SQUARED 0.0466, read-out: LUCIFERASE INFECTION ASSAY - IC50): > 10 µM
15 | CC1(C(=O)N2CCN(c3ccc(C(F)(F)F)cn3)CC2)Cc2ccccc2C(=O)O1 (stereo not drawn) | > 10 | IC50 (HEPG2TOX_HILL_SLOPE 9.02, HEPG2TOX_R_SQUARED 0.896, PBLUC_HILL_SLOPE 11.4, 1.60, PBLUC_R_SQUARED 0.0115, 0.213, read-out: LUCIFERASE INFECTION ASSAY - IC50): 7.88 µM
16 | Cc1ccc(C)c(-n2nnnc2SCC(=O)NC(=O)NC23CC4CC(CC(C4)C2)C3)c1 | 9.88 | IC50 (PBLUC_HILL_SLOPE 3.63, PBLUC_R_SQUARED 0.524, read-out: LUCIFERASE INFECTION ASSAY - IC50): 5.39 µM
17 | COc1ccc2cc(C(C)C(=O)N/N=C/c3ccccc3O)ccc2c1 (stereo not drawn) | > 9.47 | IC50 (HEPG2TOX_HILL_SLOPE 3.47, HEPG2TOX_R_SQUARED 0.909, PBLUC_HILL_SLOPE 4.89, PBLUC_R_SQUARED 0.506, read-out: LUCIFERASE INFECTION ASSAY - IC50): 6.69 µM
18 | N#Cc1ccsc1NC(=O)COc1ccc([N+](=O)[O-])cc1Cl | > 10 | IC50 (FFLUC_HILL_SLOPE 45.5, FFLUC_R_SQUARED 0.53, PBLUC_HILL_SLOPE 0.51, PBLUC_R_SQUARED 0.745, read-out: LUCIFERASE INFECTION ASSAY - IC50): 0.444 µM
19 | OC(c1cc(F)c(F)c(F)c1)c1nnc(Nc2cccc(Cl)c2)s1 (stereo not drawn) | > 10 | IC50 [1]: > 10 µM
20 | Cn1ccnc1SCc1n[nH]c(=O)c2ccccc12 | 8.93 | IC50 (HEPG2TOX_HILL_SLOPE 15.9, HEPG2TOX_R_SQUARED 0.771, PBLUC_HILL_SLOPE 3.2, PBLUC_R_SQUARED 0.661, read-out: LUCIFERASE INFECTION ASSAY - IC50): 4.5 µM
21 | COc1cc(/C=C(\C#N)c2ccc(C)cc2)cc(OC)c1OC | 4.54 | IC50 (HEPG2TOX_HILL_SLOPE 1.64, HEPG2TOX_R_SQUARED 0.962, PBLUC_HILL_SLOPE 4.59, PBLUC_R_SQUARED 0.528, read-out: LUCIFERASE INFECTION ASSAY - IC50): 2.82 µM

Row | Compound | IC90 [µM] | other results
22 | CC(=O)Oc1ccccc1C(=O)NCc1ccc(C)cc1 | > 11.6 | IC50 [1]: > 11.6 µM
23 | CCCCCC1/C(=N\O)CC(c2ccccc2)N(C)C1c1ccccc1 (stereo not drawn) | > 9.42 | IC50 (FFLUC_HILL_SLOPE 1.59, FFLUC_R_SQUARED 0.859, read-out: LUCIFERASE INFECTION ASSAY - IC50): > 9.42 µM
24 | COc1ccc(C2=NN=C/C2=N\Nc2ccccc2)cc1 | 3.89 | IC50 (HEPG2TOX_HILL_SLOPE 2.19, HEPG2TOX_R_SQUARED 0.971, PBLUC_HILL_SLOPE 2.49, PBLUC_R_SQUARED 0.567, read-out: LUCIFERASE INFECTION ASSAY - IC50): 1.61 µM
25 | O=c1c2ccccc2sc2nc(C3CCCCC3)n(Cc3ccco3)c(=O)c12 | > 8.41 | IC50 (PBLUC_HILL_SLOPE 3.17, PBLUC_R_SQUARED 0.712, read-out: LUCIFERASE INFECTION ASSAY - IC50): 4.57 µM
26 | Cc1cc(-c2cn3c(-c4cccc(O)c4)cnc3cn2)cc(C)c1O | > 9.96 | IC50 (FFLUC_HILL_SLOPE 0.138, FFLUC_R_SQUARED 0.042, HEPG2TOX_HILL_SLOPE 1.55, HEPG2TOX_R_SQUARED 0.983, PBLUC_HILL_SLOPE 3.3, PBLUC_R_SQUARED 0.553, read-out: LUCIFERASE INFECTION ASSAY - IC50): 6.94 µM
27 | Cn1nc(C(=O)NCC(c2cccs2)N2CCCC2)c2ccccc2c1=O (stereo not drawn) | > 10 | IC50 [1]: > 10 µM
28 | O=C(Nc1nonc1-c1cccs1)c1ccc(Br)cc1 | 6.36 | IC50 (HEPG2TOX_HILL_SLOPE 7.96, HEPG2TOX_R_SQUARED 0.814, PBLUC_HILL_SLOPE 7.42, PBLUC_R_SQUARED 0.0569, read-out: LUCIFERASE INFECTION ASSAY - IC50): 4.73 µM
29 | CO[C@H]1[C@H](O)[C@H](O[C@H]2CC[C@]3(C)C4CC[C@]5(C)C(C6=CC(=O)OC6)CC[C@]5(O)C4CC[C@@H]3C2)O[C@@H](C)[C@@H]1O (stereo partly drawn) | 0.138 | 
30 | Cc1sc2nc(CN3CCOCC3)nc(NCCc3c[nH]c4ccccc34)c2c1C | > 10 | IC50 [1]: > 10 µM
31 | O=C(Cn1ncc(Cl)c(Cl)c1=O)NCC12CC3CC(CC(C3)C1)C2 | > 10 | IC50 (FFLUC_HILL_SLOPE 71.8, FFLUC_R_SQUARED 0.575, read-out: LUCIFERASE INFECTION ASSAY - IC50): > 10 µM
32 | Cc1ccc(-c2oc3ccccc3c(=O)c2O)cc1 | > 13.1 | IC50 [1]: > 13.1 µM
33 | O=C1C(=O)N(Cc2ccc(F)cc2)c2c1cccc2C(F)(F)F | 6.88 | IC50 (HEPG2TOX_HILL_SLOPE 12.5, HEPG2TOX_R_SQUARED 0.837, PBLUC_HILL_SLOPE 3.51, PBLUC_R_SQUARED 0.677, read-out: LUCIFERASE INFECTION ASSAY - IC50): 3.68 µM
34 | FC(F)(F)c1ccc(Nc2n[nH]c(=S)s2)cc1 | > 11.9 | IC50 (PBLUC_HILL_SLOPE 2.58, PBLUC_R_SQUARED 0.163, read-out: LUCIFERASE INFECTION ASSAY - IC50): 8.08 µM
35 | COc1c(Cl)cc(C(=O)Nc2nonc2-c2ccc(F)cc2)cc1Cl | 2.81 | IC50 (HEPG2TOX_HILL_SLOPE 3.32, HEPG2TOX_R_SQUARED 0.957, PBLUC_HILL_SLOPE 18.3, PBLUC_R_SQUARED 0.283, read-out: LUCIFERASE INFECTION ASSAY - IC50): 2.49 µM
36 | CCn1c(NC(=O)Cc2c(Cl)cccc2Cl)nc2ccccc21 | 6.27 | IC50 (PBLUC_HILL_SLOPE 118, PBLUC_R_SQUARED 0.0721, read-out: LUCIFERASE INFECTION ASSAY - IC50): 6.16 µM
37 | Cc1c(C)c(C)c(S(=O)(=O)Nc2ccc(Oc3ccc(Cl)cc3)cc2)c(C)c1C | > 7.68 | IC50 (PBLUC_HILL_SLOPE 11, PBLUC_R_SQUARED 0.0118, read-out: LUCIFERASE INFECTION ASSAY - IC50): > 7.68 µM
38 | Cc1ccc(-c2nonc2NC(=O)c2sc3ccccc3c2Cl)cc1 | 6.55 | IC50 (HEPG2TOX_HILL_SLOPE 10.3, HEPG2TOX_R_SQUARED 0.121, PBLUC_HILL_SLOPE 5.87, PBLUC_R_SQUARED 0.389, read-out: LUCIFERASE INFECTION ASSAY - IC50): 4.5 µM
39 | CCOc1ccc(-c2nnc(SCC(=O)Nc3ccccc3C(=O)NCc3ccccc3)o2)cc1 | > 10 | IC50 [1]: 4.44 µM
40 | CSc1nc2ccc(NC(=O)c3[nH]c4c(c3C)C(=O)CCC4)cc2s1 | > 10 | IC50 [1]: > 10 µM
41 | CCCCCC(/C=N/Nc1nncc2ccccc12)=C\c1ccccc1 | 9.96 | IC50 (PBLUC_HILL_SLOPE 4.26, PBLUC_R_SQUARED 0.663, read-out: LUCIFERASE INFECTION ASSAY - IC50): 5.95 µM
42 | Fc1cccc(-c2cnc3cnc(-c4ccncc4)cn23)c1 | > 11.4 | IC50 (HEPG2TOX_HILL_SLOPE 3.65, HEPG2TOX_R_SQUARED 0.679, PBLUC_HILL_SLOPE 2.42, PBLUC_R_SQUARED 0.708, read-out: LUCIFERASE INFECTION ASSAY - IC50): 5.64 µM
